Measurements as given in ChEMBL document CHEMBL1128255, “Synthesis of 11 beta-[18F]fluoro-5 alpha-dihydrotestosterone and 11 beta-[18F]fluoro-19-nor-5 alpha-dihydrotestosterone: preparation via halofluorination-reduction, receptor binding, and tissue distribution” (J Med Chem, 1995).

Experiments:
[1] = %ID/g is percent injected dose per gram of tissue and in vivo distribution of compound obtained after 1 hour in prostate (d)/muscle; assay type: ADME, organism-based
[2] = %ID/g is percent injected dose per gram of tissue and in vivo distribution of compound obtained after 1 hour in prostate (v); assay type: ADME, organism-based, Prostate gland
[3] = %ID/g is percent injected dose per gram of tissue and in vivo distribution of compound obtained after 1 hour in prostate (v)/blood; assay type: ADME, organism-based
[4] = %ID/g is percent injected dose per gram of tissue and in vivo distribution of compound obtained after 2 hour in prostate (d); assay type: ADME, organism-based, Prostate gland
[5] = %ID/g is percent injected dose per gram of tissue and in vivo distribution of compound obtained after 2 hour in prostate (v); assay type: ADME, organism-based, Prostate gland
[6] = %ID/g is percent injected dose per gram of tissue and in vivo distribution of compound obtained after 2 hour in prostate (v)/muscle; assay type: ADME, organism-based
[7] = %ID/g is percent injected dose per gram of tissue and in vivo distribution of compound obtained after 4 hour in bladder; assay type: ADME, organism-based, Urinary bladder
[8] = %ID/g is percent injected dose per gram of tissue and in vivo distribution of compound obtained after 4 hour in blood; assay type: ADME, organism-based
[9] = %ID/g is percent injected dose per gram of tissue and in vivo distribution of compound obtained after 4 hour in bone; assay type: ADME, organism-based, Bone element
[10] = %ID/g is percent injected dose per gram of tissue and in vivo distribution of compound obtained after 4 hour in fat; assay type: ADME, organism-based, Adipose tissue
[11] = %ID/g is percent injected dose per gram of tissue and in vivo distribution of compound obtained after 4 hour in muscle; assay type: ADME, organism-based
[12] = %ID/g is percent injected dose per gram of tissue and in vivo distribution of compound obtained after 4 hour in prostate (d); assay type: ADME, organism-based, Prostate gland
[13] = %ID/g is percent injected dose per gram of tissue and in vivo distribution of compound obtained after 4 hour in prostate (d)/muscle; assay type: ADME, organism-based
[14] = %ID/g is percent injected dose per gram of tissue and in vivo distribution of compound obtained after 4 hour in prostate (v); assay type: ADME, organism-based, Prostate gland
[15] = %ID/g is percent injected dose per gram of tissue and in vivo distribution of compound obtained after 4 hour in prostate (v)/blood; assay type: ADME, organism-based; settings: other tissue
[16] = %ID/g is percent injected dose per gram of tissue and in vivo distribution of compound obtained after 4 hour in prostate (v)/muscle; assay type: ADME, organism-based
[17] = %ID/g is percent injected dose per gram of tissue and in vivo distribution of compound obtained after 4 hour in spleen; assay type: ADME, organism-based
[18] = %ID/g is percent injected dose per gram of tissue and in vivo distribution of compound obtained after 2 hour in prostate (d)/biood; assay type: ADME, organism-based, Prostate gland
[19] = %ID/g is percent injected dose per gram of tissue and in vivo distribution of compound obtained after 1 hour in bladder; assay type: ADME, organism-based, Urinary bladder
[20] = %ID/g is percent injected dose per gram of tissue and in vivo distribution of compound obtained after 1 hour in blood; assay type: ADME, organism-based
[21] = %ID/g is percent injected dose per gram of tissue and in vivo distribution of compound obtained after 1 hour in fat; assay type: ADME, organism-based, Adipose tissue
[22] = %ID/g is percent injected dose per gram of tissue and in vivo distribution of compound obtained after 1 hour in liver; assay type: ADME, organism-based
[23] = %ID/g is percent injected dose per gram of tissue and in vivo distribution of compound obtained after 1 hour in lung; assay type: ADME, organism-based
[24] = %ID/g is percent injected dose per gram of tissue and in vivo distribution of compound obtained after 1 hour in muscle; assay type: ADME, organism-based
[25] = %ID/g is percent injected dose per gram of tissue and in vivo distribution of compound obtained after 1 hour in prostate (d); assay type: ADME, organism-based, Prostate gland
[26] = %ID/g is percent injected dose per gram of tissue and in vivo distribution of compound obtained after 2 hour (low) in lung; assay type: ADME, organism-based
[27] = %ID/g is percent injected dose per gram of tissue and in vivo distribution of compound obtained after 2 hour (low) in muscle; assay type: ADME, organism-based
[28] = %ID/g is percent injected dose per gram of tissue and in vivo distribution of compound obtained after 2 hour (low) in prostate (d); assay type: ADME, organism-based, Prostate gland
[29] = %ID/g is percent injected dose per gram of tissue and in vivo distribution of compound obtained after 2 hour (low) in prostate (d)/biood; assay type: ADME, organism-based, Prostate gland
[30] = %ID/g is percent injected dose per gram of tissue and in vivo distribution of compound obtained after 2 hour (low) in prostate (v); assay type: ADME, organism-based, Prostate gland
[31] = %ID/g is percent injected dose per gram of tissue and in vivo distribution of compound obtained after 2 hour (low) in prostate (v)/blood; assay type: ADME, organism-based
[32] = %ID/g is percent injected dose per gram of tissue and in vivo distribution of compound obtained after 2 hour (low) in prostate (v)/muscle; assay type: ADME, organism-based
[33] = %ID/g is percent injected dose per gram of tissue and in vivo distribution of compound obtained after 2 hour (low) in spleen; assay type: ADME, organism-based
[34] = %ID/g is percent injected dose per gram of tissue and in vivo distribution of compound obtained after 2 hour in bladder; assay type: ADME, organism-based, Urinary bladder
[35] = %ID/g is percent injected dose per gram of tissue and in vivo distribution of compound obtained after 2 hour in blood; assay type: ADME, organism-based
[36] = %ID/g is percent injected dose per gram of tissue and in vivo distribution of compound obtained after 2 hour (blocked) in kidney; assay type: ADME, organism-based
[37] = %ID/g is percent injected dose per gram of tissue and in vivo distribution of compound obtained after 2 hour (blocked) in lung; assay type: ADME, organism-based
[38] = %ID/g is percent injected dose per gram of tissue and in vivo distribution of compound obtained after 2 hour (blocked) in muscle; assay type: ADME, organism-based
[39] = %ID/g is percent injected dose per gram of tissue and in vivo distribution of compound obtained after 2 hour (blocked) in prostate (d)/muscle; assay type: ADME, organism-based
[40] = %ID/g is percent injected dose per gram of tissue and in vivo distribution of compound obtained after 2 hour (blocked) in prostate (v)/blood; assay type: ADME, organism-based; settings: other tissue
[41] = %ID/g is percent injected dose per gram of tissue and in vivo distribution of compound obtained after 2 hour (blocked) in prostate (v)/muscle; assay type: ADME, organism-based
[42] = %ID/g is percent injected dose per gram of tissue and in vivo distribution of compound obtained after 2 hour (low) in blood; assay type: ADME, organism-based
[43] = %ID/g is percent injected dose per gram of tissue and in vivo distribution of compound obtained after 2 hour (low) in bone; assay type: ADME, organism-based, Bone element
[44] = %ID/g is percent injected dose per gram of tissue and in vivo distribution of compound obtained after 2 hour (low) in fat; assay type: ADME, organism-based, Adipose tissue
[45] = %ID/g is percent injected dose per gram of tissue and in vivo distribution of compound obtained after 1 hour in prostate (v)/muscle; assay type: ADME, organism-based
[46] = %ID/g is percent injected dose per gram of tissue and in vivo distribution of compound obtained after 2 hour (blocked) in bladder; assay type: ADME, organism-based, Urinary bladder
[47] = %ID/g is percent injected dose per gram of tissue and in vivo distribution of compound obtained after 2 hour (blocked) in blood; assay type: ADME, organism-based
[48] = %ID/g is percent injected dose per gram of tissue and in vivo distribution of compound obtained after 2 hour (blocked) in bone; assay type: ADME, organism-based, Bone element
[49] = %ID/g is percent injected dose per gram of tissue and in vivo distribution of compound obtained after 2 hour (blocked) in fat; assay type: ADME, organism-based, Adipose tissue
[50] = physchem; settings: octanol/water
Description: Partition coefficient (logP)

In the case of C[C@]12CCC(=O)C[C@@H]1CC[C@@H]1[C@@H]2[C@@H](F)C[C@]2(C)[C@@H](O)CC[C@@H]12, the ID/g [1] is reported as 7.75%, the ID/g [2] is reported as 0.486% and the ID/g [3] is reported as 5.41%. It also gave an ID/g [4] of 0.352%, an ID/g [5] of 0.317% and an ID/g [6] of 9.022%. It also gave an ID/g [7] of 0.268%, an ID/g [8] of 0.028% and an ID/g [9] of 0.072%. It also gave an ID/g [10] of 0.012%, an ID/g [11] of 0.017% and an ID/g [12] of 0.291%. For the same compound, the ID/g [13] was 17.573%, the ID/g [14] was 0.327% and the ID/g [15] was 12.249%. It also gave an ID/g [16] of 19.715%, an ID/g [17] of 0.02% and an ID/g [18] of 10.642%. The ID/g [19] was 1.245%, the ID/g [20] was 0.092% and the ID/g [21] was 0.061%. For the same compound, the ID/g [22] was 1.16%, the ID/g [23] was 0.111% and the ID/g [24] was 0.059%. The ID/g [25] was 0.459%, the ID/g [26] was 0.036% and the ID/g [27] was 0.026%. The ID/g [28] was 0.229%, the ID/g [29] was 11.358% and the ID/g [30] was 0.212%. The ID/g [31] was 10.43%, the ID/g [32] was 8.86% and the ID/g [33] was 0.017%. For the same compound, the ID/g [34] was 0.165%, the ID/g [35] was 0.038% and the ID/g [36] was 0.2%. For the same compound, the ID/g [37] was 0.039%, the ID/g [38] was 0.023% and the ID/g [39] was 3.089%. For the same compound, the ID/g [40] was 1.357%, the ID/g [41] was 2.895% and the ID/g [42] was 0.022%. It also gave an ID/g [43] of 0.059%, an ID/g [44] of 0.02% and an ID/g [45] of 8.208%. It also gave an ID/g [46] of 0.903%, an ID/g [47] of 0.048% and an ID/g [48] of 0.061%. It also gave an ID/g [49] of 0.026% and a logP [50] of 3.5.

With C[C@]12C[C@H](F)[C@H]3[C@@H](CC[C@H]4CC(=O)CC[C@@H]43)[C@@H]1CC[C@@H]2O the ID/g [1] was 3.473%, the ID/g [2] was 0.284% and the ID/g [3] was 3.054%. The ID/g [4] was 0.132%, the ID/g [5] was 0.12% and the ID/g [6] was 3.404%. For the same compound, the ID/g [7] was 0.456%, the ID/g [8] was 0.035% and the ID/g [9] was 0.078%. The ID/g [10] was 0.022%, the ID/g [11] was 0.027% and the ID/g [12] was 0.084%. For the same compound, the ID/g [13] was 3.98%, the ID/g [14] was 0.066% and the ID/g [15] was 2.036%. For the same compound, the ID/g [16] was 2.919%, the ID/g [17] was 0.029% and the ID/g [18] was 2.95%. It also gave an ID/g [19] of 3.331%, an ID/g [20] of 0.089% and an ID/g [21] of 0.069%. It also gave an ID/g [22] of 1.812%, an ID/g [23] of 0.115% and an ID/g [24] of 0.064%. The ID/g [25] was 0.21%, the ID/g [26] was 0.061% and the ID/g [27] was 0.037%. For the same compound, the ID/g [28] was 0.139%, the ID/g [29] was 3.126% and the ID/g [30] was 0.109%. For the same compound, the ID/g [31] was 2.427%, the ID/g [32] was 2.993% and the ID/g [33] was 0.049%. It also gave an ID/g [34] of 4.549%, an ID/g [35] of 0.046% and an ID/g [36] of 0.301%. The ID/g [37] was 0.054%, the ID/g [38] was 0.03% and the ID/g [39] was 1.61%. It also gave an ID/g [40] of 0.88%, an ID/g [41] of 1.763% and an ID/g [42] of 0.047%. The ID/g [43] was 0.096%, the ID/g [44] was 0.041% and the ID/g [45] was 4.4%. It also gave an ID/g [46] of 11.404%, an ID/g [47] of 0.061% and an ID/g [48] of 0.065%. For the same compound, the ID/g [49] was 0.036% and the logP [50] was 3.1.
